Experimental findings from ChEMBL document CHEMBL1158650, “Isolation in High Yield of Citrinin From Penicillium odoratum and of Mycophenolic Acid From Penicillium brunneo-stoloniferum” (1979) are described below.

What all share (type): functional
The subject of one assay is Fusarium graminearum. Nature of the assay: Antifungal activity against Gibberella zeae IFO 4474 by twofold dilution method.
A further assay deals with Alternaria. Nature of the assay: Antifungal activity against Alternaria maritima IFO 8618 by twofold dilution method.
A further assay has as its system Bacillus subtilis. Nature of the assay: Antibacterial activity against Bacillus subtilis IFO 3108 by twofold dilution method.

≈ marks a conversion by molar mass, not a printed value.

`COc1c(C)c2c(c(O)c1C/C=C(\C)CCC(=O)O)C(=O)OC2` [MYCOPHENOLIC ACID]: the MIC against Fusarium graminearum and with Alternaria was 200 µg/mL (≈ 624 µM) in each case.
On to `CC1=C2C(=CO[C@H](C)[C@H]2C)C(O)=C(C(=O)O)C1=O` [CITRININ], for which the MIC (in general, the lowest concentration found to suppress growth) in the assay on Bacillus subtilis was 25 µg/mL (≈ 99.9 µM).
